PubChem BioAssay (NCI)
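Assay format: 96-well plates, 48-hour exposure. At the TGI there is no net growth.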

Columns and labels:
Assay in all cases: DTP human tumour cell line panel, 48 h
[1] = tested on: A549 NSCLC
[2] = tested on: MCF7 breast
[3] = tested on: HCT-15 colon
[4] = tested on: SNB-75 CNS
[5] = tested on: UACC-62 melanoma
[6] = tested on: HOP-62 NSCLC
[7] = tested on: RXF 393 renal
[8] = tested on: HS 578T breast
[9] = tested on: SNB-19 CNS
[10] = tested on: HOP-92 NSCLC
[11] = tested on: MDA-N
[12] = tested on: NCI/ADR-RES ovarian
[13] = tested on: IGROV1 ovarian
[14] = tested on: TK-10 renal
[15] = tested on: NCI-H226 lung
[16] = tested on: HCT-116 colon

| SMILES | TGI [1] | TGI [2] | TGI [3] | TGI [4] | TGI [5] | TGI [6] | TGI [7] | TGI [8] | TGI [9] | TGI [10] | TGI [11] | TGI [12] | TGI [13] | TGI [14] | TGI [15] | TGI [16] |
| --- | --- | --- | --- | --- | --- | --- | --- | --- | --- | --- | --- | --- | --- | --- | --- | --- |
| COc1cccc2cc(C(=O)NC34CC5CC(CC(C5)C3)C4)c(=N)oc12 | > 100 µM | > 100 µM | > 100 µM | > 100 µM | > 100 µM | > 100 µM | > 79.9 µM | > 96.7 µM | > 100 µM | > 55 µM | > 100 µM | > 100 µM | > 85.7 µM | > 100 µM | > 100 µM | > 100 µM |
| Cc1ccc(C(=O)N/N=C2/C(=O)c3c4ccccc4cc4cccc2c34)cc1 | > 100 µM | 11.6 µM | > 100 µM | > 81 µM | > 93.1 µM | 43.4 µM | > 69 µM | 58.1 µM | > 89.8 µM | > 94 µM | > 100 µM | > 91.2 µM | > 85.2 µM | > 100 µM | > 100 µM | 27.3 µM |
| C1=NCCOCCN=Cc2ccc(cc2)OCc2cccc(n2)COc2ccc1cc2 | > 100 µM | > 100 µM | > 100 µM | > 100 µM | > 100 µM | > 100 µM | > 100 µM | > 100 µM | > 100 µM | > 100 µM | > 100 µM | > 100 µM | > 100 µM | > 100 µM | > 100 µM | > 100 µM |
| COc1ccc(C2C3=C(COC3=O)OC(C)(C)Oc3cc4c(cc32)OCO4)cc1OC (configuration not stated) | > 100 µM | > 90.9 µM | > 100 µM | 24.8 µM | > 75.4 µM | > 100 µM | 68.8 µM | > 100 µM | > 100 µM | > 73.8 µM | 39.2 µM | 58.7 µM | > 100 µM | > 100 µM | > 100 µM | > 92.3 µM |
| C[n+]1cn(-c2nc3ccccc3nc2[N-]S(=O)(=O)c2ccccc2)c2ccccc21 | > 100 µM | > 100 µM | > 100 µM | > 100 µM | > 100 µM | > 100 µM | > 100 µM | > 100 µM | > 100 µM | > 100 µM | > 100 µM | > 100 µM | > 100 µM | > 100 µM | > 100 µM | > 100 µM |
| [N-]=[N+]=Nc1ccc2c(c1)Sc1ccccc1N2CCCCN1CCN(C(=O)CCNC(=O)Cc2ccc(C(=O)c3ccccc3)cc2)CC1 | > 100 µM | 5.78 µM | 8.52 µM | > 24.4 µM | 19.6 µM | > 100 µM | > 100 µM | > 100 µM | > 56.4 µM | > 29.2 µM | 14.1 µM | > 39.1 µM | > 35.5 µM | > 75.6 µM | > 100 µM | 18.9 µM |
| C=CC[C@]1(C2=NC(C)(C)CO2)c2ccccc2-c2ccccc2[C@H]1C(C)=O | 36.8 µM | 24.8 µM | 26.4 µM | 46.2 µM | 19.2 µM | 32.7 µM | 15.8 µM | 25.1 µM | 34.7 µM | 39.8 µM | 8.45 µM | 22.7 µM | > 48.6 µM | 34.4 µM | 30 µM | 20.2 µM |
| C=CCn1c(-c2ccc(Cl)cc2)csc1=Nc1ccccc1OC | > 100 µM | > 100 µM | > 100 µM | > 94.3 µM | > 94 µM | > 100 µM | > 100 µM | > 100 µM | > 100 µM | > 100 µM | > 59.6 µM | > 91.6 µM | > 100 µM | > 100 µM | > 100 µM | > 100 µM |
| C#CC(O)/C=C/C(O)CCCC(O)CC#CC(O)C#CCCCCC(O)/C=C/CCCC(O)/C=C/CCCCCCCCCCCCCC(O)C(O)C#CC(=O)O (configuration not stated) | > 25 µM | > 25 µM | > 25 µM | > 25 µM | > 25 µM | > 25 µM | > 25 µM | > 25 µM | > 25 µM | > 25 µM | > 25 µM | > 25 µM | > 25 µM | > 25 µM | > 25 µM | > 25 µM |
| N#Cc1c(-c2ccccc2)cc(Nc2ccc(Cl)cc2)n2c1nc1ccccc12 | > 40.1 µM | > 76.3 µM | > 88 µM | > 31.1 µM | > 100 µM | > 58.2 µM | > 100 µM | 20.2 µM | > 100 µM | 4.63 µM | > 41.6 µM | 15.7 µM | > 100 µM | > 100 µM | > 100 µM | > 31.7 µM |
| C#C[C@]1(O)CC[C@H]2[C@@H]3CCC4=C/C(=N/OC(=O)c5cccc6c(=O)c7ccccc7[nH]c56)CCC4[C@H]3CC[C@@]21CC (some centres not stated) | > 100 µM | > 93.5 µM | > 47.7 µM | > 100 µM | > 71.9 µM | > 100 µM | 12.6 µM | > 100 µM | > 100 µM | > 100 µM | > 100 µM | > 100 µM | > 100 µM | > 100 µM | > 100 µM | > 100 µM |
| CN(C)c1ccc(/C=C(\NC(=O)c2ccccc2)C(=O)NC(Cc2c[nH]c3ccccc23)C(=O)O)cc1 (configuration not stated) | > 100 µM | > 100 µM | > 100 µM | 33.1 µM | > 100 µM | > 100 µM | > 100 µM | > 100 µM | > 100 µM | > 100 µM | > 100 µM | > 100 µM | > 100 µM | > 100 µM | > 100 µM | > 100 µM |
